Experimental data as given in patent US20190054087A1, “TREATMENT OF SMALL CELL LUNG CANCER WITH A PARP INHIBITOR” (priority 2015, published 2019).
Read-outs that look alike come from different tables or passages of the source.

Experiments:
38 SCLC cell lines = assay: Cell line cytotoxicity assay (CellTiter Glo), panel of 38 SCLC cell lines; format: cell-based; conditions: Homo sapiens, 38 SCLC lines, 5 or 7 days incubation, generational method
Method: Various SCLC cell lines (38) were obtained from ATCC (American Type Culture Collection), ECACC (European Collection of Cell Cultures), JCRB (Japanese Collection of Research Bioresources), and CLS Cell Lines Service as shown in Table 1. […] After 24 h, talazoparib at 2000, 400, 80, 16, 3.2, or 0.64 nM in 0.2% DMSO, or cisplatin at 100,000, 2000, 400, 80, 16, or 3.2 nM were added in duplicate, and incubated for an additional 5 or 7 days. Cell survival was determined by CellTiter Glo assay (Promega). Cell growth inhibition was calculated by two methods: (a) the treated cell counts relative to untreated control to obtain IC50 (convention survival fraction method), or (b) doublings from baseline under treatment relative to doublings from baseline without treatment to obtain GI50 (generational method), using GraphPad Prism5. Maximum inhibition levels for each method were also obtained.

NCI-H209 SCLC cell line = assay: Cell line cytotoxicity assay (CellTiter Glo), NCI-H209; format: cell-based; conditions: Homo sapiens, SLFN11 RMA 8.794, read-out: BMN 673 Sensitivity In vitro GI50
Method: (§1) After 24 h, talazoparib at 2000, 400, 80, 16, 3.2, or 0.64 nM in 0.2% DMSO, or cisplatin at 100,000, 2000, 400, 80, 16, or 3.2 nM were added in duplicate, and incubated for an additional 5 or 7 days. Cell survival was determined by CellTiter Glo assay (Promega). Cell growth inhibition was calculated by two methods: (a) the treated cell counts relative to untreated control to obtain IC50 (convention survival fraction method), or (b) doublings from baseline under treatment relative to doublings from baseline without treatment to obtain GI50 (generational method), using GraphPad Prism5. Maximum inhibition levels for each method were also obtained.

NCI-H1048 SCLC cell line = assay: Cell line cytotoxicity assay (CellTiter Glo), NCI-H1048; format: cell-based; conditions: Homo sapiens, SLFN11 RMA 7.583, read-out: BMN 673 Sensitivity In vitro GI50
Method: as §1

NCI-H69 SCLC cell line = assay: Cell line cytotoxicity assay (CellTiter Glo), NCI-H69; format: cell-based; conditions: Homo sapiens, SLFN11 RMA 3.981, read-out: BMN 673 Sensitivity In vitro GI50
Method: as §1

NCI-H209 SCLC xenograft = assay: Cell line-derived xenograft model NCI-H209; format: in vivo, BALB/c nude mice; conditions: 0.33 mg/kg, Q1D×28 p.o.
Method: (§2) Human NCI-H1048, NCI-H209, and NCI-H69 SCLC tumor cells were injected subcutaneously in the flanks of BALB/c nude mice. When tumors reached approximately 130 mm^3 average volume, animals (n=8 per group) were treated with vehicle (Q1D×28, p.o.), cisplatin (6 mg/kg, Q6D×2 i.p.), or talazoparib (0.33 mg/kg, Q1D×28 p.o.). Tumor growth and animal body weight were monitored twice per week by standard methods.

NCI-H1048 SCLC xenograft = assay: Cell line-derived xenograft model NCI-H1048; format: in vivo, BALB/c nude mice; conditions: 0.33 mg/kg, Q1D×28 p.o.
Method: as §2

NCI-H69 SCLC xenograft = assay: Cell line-derived xenograft model NCI-H69; format: in vivo, BALB/c nude mice; conditions: 0.33 mg/kg, Q1D×28 p.o.
Method: as §2

[1] = tested on: LU-01-0547 SCLC PDX tumor; assay: Human SCLC PDX model LU-01-0547; format: in vivo, immunocompromised mice; conditions: D 83, MTD 0.25-0.3 mg/kg once daily oral, median tumor volume (n = 5)
Method: (§3) Twelve human SCLC PDX models (obtained from Crown Biosciences, OncoTest, WuxiAppTec) were evaluated for their responses to talazoparib single agent treatment. PDX tumors were propagated subcutaneously in immunocompromised mice at passage 3 to 13. When tumors reached approximately 150 mm^3 average volume, animals (n=5 per group) were administered orally with vehicle (once daily dose), or talazoparib at the maximum tolerated dose (MTD; 0.25-0.3 mg/kg, once daily). Tumor volume and animal body weight were measured twice weekly until the end of study or until tumor size exceeded 2000 mm^3. Untreated tumor samples were collected from mice. Median tumor volume on Day 21 and beyond after first treatment was used to calculate the change from baseline to evaluate response.

CTG-0198 SCLC PDX tumor = assay: Human SCLC PDX model CTG-0198; format: in vivo, immunocompromised mice; conditions: D 29, MTD 0.25-0.3 mg/kg once daily oral, median tumor volume (n = 5)
Method: as §3

LU1267 SCLC PDX tumor = assay: Human SCLC PDX model LU1267; format: in vivo, immunocompromised mice; conditions: D 38, MTD 0.25-0.3 mg/kg once daily oral, median tumor volume (n = 5)
Method: as §3

LU67 SCLC PDX tumor = assay: Human SCLC PDX model LU67; format: in vivo, immunocompromised mice; conditions: D 25, MTD 0.25-0.3 mg/kg once daily oral, median tumor volume (n = 5)
Method: as §3

LU65 SCLC PDX tumor = assay: Human SCLC PDX model LU65; format: in vivo, immunocompromised mice; conditions: D 21, MTD 0.25-0.3 mg/kg once daily oral, median tumor volume (n = 5)
Method: as §3

LXFS 615 SCLC PDX tumor = assay: Human SCLC PDX model LXFS 615; format: in vivo, immunocompromised mice; conditions: D 21, MTD 0.25-0.3 mg/kg once daily oral, median tumor volume (n = 5)
Method: as §3

LXFS 1129 SCLC PDX tumor = assay: Human SCLC PDX model LXFS 1129; format: in vivo, immunocompromised mice; conditions: D 21, MTD 0.25-0.3 mg/kg once daily oral, median tumor volume (n = 5)
Method: as §3

LU2514 SCLC PDX tumor = assay: Human SCLC PDX model LU2514; format: in vivo, immunocompromised mice; conditions: D 21, MTD 0.25-0.3 mg/kg once daily oral, median tumor volume (n = 5)
Method: as §3

LXFS 650 SCLC PDX tumor = assay: Human SCLC PDX model LXFS 650; format: in vivo, immunocompromised mice; conditions: D 21, MTD 0.25-0.3 mg/kg once daily oral, median tumor volume (n = 5)
Method: as §3

CTG-0199 SCLC PDX tumor = assay: Human SCLC PDX model CTG-0199; format: in vivo, immunocompromised mice; conditions: D 21, MTD 0.25-0.3 mg/kg once daily oral, median tumor volume (n = 5)
Method: as §3

LXFS 573 SCLC PDX tumor = assay: Human SCLC PDX model LXFS 573; format: in vivo, immunocompromised mice; conditions: D 21, MTD 0.25-0.3 mg/kg once daily oral, median tumor volume (n = 5)
Method: as §3

LXFS 2156 SCLC PDX tumor = assay: Human SCLC PDX model LXFS 2156; format: in vivo, immunocompromised mice; conditions: D 21, MTD 0.25-0.3 mg/kg once daily oral, median tumor volume (n = 5)
Method: as §3

[2] = tested on: Twelve human SCLC PDX models; assay: Twelve human SCLC PDX models, response classification; format: in vivo, immunocompromised mice; conditions: 12 SCLC PDX models; talazoparib at maximum tolerated dose
Method: as §3
Twelve human SCLC PDX models were further tested with talazoparib at maximum tolerated doses compared to a vehicle control.

Cn1ncnc1[C@H]1c2n[nH]c(=O)c3cc(F)cc(c23)N[C@@H]1c1ccc(F)cc1 [talazoparib]
GI50 (38 SCLC cell lines; read-out: GI50 range across the 38 SCLC lines): ≥ 0.002 µM | GI50 (38 SCLC cell lines; read-out: median GI50 across the 38 SCLC lines): 0.056 µM | GI50 (NCI-H209 SCLC cell line): 0.00203 µM | GI50 (NCI-H1048 SCLC cell line): 0.0144 µM | GI50 (NCI-H69 SCLC cell line): 0.19 µM | BMN 673 Sensitivity In vivo Tumor growth (NCI-H209 SCLC xenograft): much more sensitive to talazoparib than the H69 model | BMN 673 Sensitivity In vivo Tumor growth (NCI-H209 SCLC xenograft; listed as BMN 673, 0.33 mg/kg): Delay | BMN 673 Sensitivity In vivo Tumor growth (NCI-H1048 SCLC xenograft): much more sensitive to talazoparib than the H69 model | BMN 673 Sensitivity In vivo Tumor growth (NCI-H1048 SCLC xenograft; listed as BMN 673, 0.33 mg/kg): Delay | BMN 673 Sensitivity In vivo Tumor growth (NCI-H69 SCLC xenograft): No delay | Best response: Change from base line (%) [1]: −95% | Best response: Change from base line (%) (CTG-0198 SCLC PDX tumor): −55% | Best response: Change from base line (%) (LU1267 SCLC PDX tumor): −30% | Best response: Change from base line (%) (LU67 SCLC PDX tumor): −29% | Best response: Change from base line (%) (LU65 SCLC PDX tumor): 17% | Best response: Change from base line (%) (LXFS 615 SCLC PDX tumor): 83% | Best response: Change from base line (%) (LXFS 1129 SCLC PDX tumor): 260% | Best response: Change from base line (%) (LU2514 SCLC PDX tumor): 262% | Best response: Change from base line (%) (LXFS 650 SCLC PDX tumor): 314% | Best response: Change from base line (%) (CTG-0199 SCLC PDX tumor): 318% | Best response: Change from base line (%) (LXFS 573 SCLC PDX tumor): 351% | Best response: Change from base line (%) (LXFS 2156 SCLC PDX tumor): 615% | PDX models designated as progressive disease (PD) [2]: remaining PDX models were resistant | PDX models with 30% or more tumor regression compared to baseline (partial responders, PR) [2]: Three of the 12 | PDX tumors with stable disease (SD)-like responses, tumor growth less than 100% on Day 21 or beyond [2]: three of the 12
